Source: patent publication US11298354B2, “Methods of use and pharmaceutical combinations of HDAC inhibitors with BET inhibitors” (DANA-FARBER CANCER INSTITUTE, INC., priority 2016, dated 2022)

How the values were obtained:
[1] = tested on: peripheral blood mononuclear cells (PBMCs) from healthy donors; assay: Healthy donor PBMCs cultured with HDAC inhibitors, FACS; format: cell-based, human; settings: for percentage of CD4+FOXP3+ Tregs within PBMCs: FIG. 1C
From the text: HDAC inhibition results in tumor growth arrest in immunocompetent animal models. The effects of class I and class II HDAC inhibition on leukocytes were investigated using peripheral blood mononuclear cells (PBMCs) obtained from healthy donors.

[2] = tested on: lung adenocarcinomas of KP mice; assay: Immune profiling of KP tumor nodules after 4-6 weeks of treatment; format: in vivo, mouse
Method: For immune profiling, cohorts of mice were sacrificed after 4-6 weeks of treatment and tumor cell suspensions were subjected to FACS analysis. […] In addition, immune cells isolated from tumors of mice treated with indicated drugs were stimulated ex-vivo for 6 hours in the presence of golgi plug. […] Equivalent numbers of each of these populations were co-cultured for two days in the presence of tumor cell lysate.
(§1) After incubation, cells were treated with red blood cell lysis buffer and were filtered through a 70 μm cell strainer. After centrifugation, cell pellet was re-suspended in 1×PBS/2% FBS. Cells were counted, and ˜0.5-1×10^6 cells were stained for surface markers in PBS+2% FBS for 15 minutes at 4° C. Intracellular staining was performed for Foxp3, Ki67, CTLA-4, and Bcl-2, using the Foxp3 staining buffer according to the manufacturer's instructions while the cytofix/cytoperm kit (BD Bioscience) was used for intracellular cytokine staining. Briefly, cells were stained for surface markers including CD4, CD8, CD3, followed by intracellular staining with PE-conjμgated anti-IFN-γ, BV421-conj μgated anti-TNF-α, APC-conjugated IL-2, FITC-conjugated Perforin and CD107a (where indicated), or isotype-matched mAbs after permeabilization and fixation. In all stained samples, dead cells were excluded using Live/Dead Fixable dead cell staining kit (Invitrogen). Cells were acquired on the LSR Fortessa (BD Biosciences) and were analyzed with the flowjo software (Treestar).
(§2) For intracellular cytokine detection assays, immune cells from tumors of treated or control mice were obtained after ficoll gradient separation as previously described. 1×10^6 cells were cultured with PMA (50 ng) and Ionomycin (500 ng) for 6 hours at 37° C., and GolgiPlμg (BD Pharmingen) was added for the last 5 hours of culture. For equivalent assays utilizing human PBMCs, 0.5×10^6 cells were similarly stimulated prior to analysis.

[3] = tested on: CD3+CD4+CD25hi Treg cells from spleen of wild-type mice; assay: Mouse splenic T cells and Tregs cultured with JQ1; format: cell-based
From the text: A combination treatment with an HDAC6 selective inhibitor and a complementary immunomodulatory agent can achieve greater levels of immune-based control of tumor growth in these NSCLC models. JQ1 was previously shown to have an anti-tumor effect in KP mice in part due to downregulation of MYC and induction of apoptosis in tumor cells. […] T cells were isolated from the spleen of wild-type mice and sorted into CD3+CD25− (T cells) or CD3+CD4+CD25hi (Treg) subsets and subsequently cultured in the presence or absence of JQ1 (1 μM). Cultures were supplemented with 100 IU/mL of recombinant IL-2. Cells were washed after two days of culture and their phenotype was evaluated by FACS. For the CSFE dilution shown in FIG. 7C, 2×10^5 CFSE-labelled purified T cells obtained from the spleen of naïve mice were co-cultured with 1.0×10^5 mitomycin C treated, T-depleted spleen cells which served as APCs. 0.5 μg of soluble anti-CD3 was then added to each well along with graded numbers of Tregs (indicated by Treg:T cell ratios).

[4] = tested on: lung adenocarcinomas of KP mice; assay: Long-term efficacy study in KP mice; settings: I.P. once daily, MRI, FIG. 6 and 8A
Method: Tumor growth was monitored weekly by MRI.
For lung tumor induction, mice received 1×10^6 cfu cre-encoding adenovirus intranasally at 5-6 weeks of age. Tumor formation (typically 6-8 weeks post inoculation) and volume was confirmed by MRI and was quantified using the 3D-slicer software. […] All mice were maintained under specific pathogen-free conditions.
JQ1 was formulated in 10% DMSO and 90% of 10% 2-hydroxylpropyl β-cyclodextrin (Sigma), and was administrated to mice at 25 mg/kg I.P. daily. Vehicle control was prepared by diluting DMSO into the related drug vehicle. […] Depletion of relevant cell types was confirmed by flow cytometry one day after the second dose using peripheral blood obtained from the tail vein.

[5] = tested on: single cell suspensions from dissociated freshly resected NSCLC tumors; assay: Dissociated NSCLC patient tumor cell cultures, FACS; format: cell-based, human; settings: 2-D tumor cell cultures, FIG. 4B
From the text: DMSO was used as a control.

[6] = current clinical trials of hematologic cancers; cited from earlier work
[7] = tested on: CD14+ monocytes from patient PBMCs / allogeneic T cells; assay: Mixed lymphocyte reaction with drug-exposed CD14+ monocytes; settings: monocytes cultured 24 hours with drug, 6 days co-culture, FIG. 4D
From the text: For T cell proliferation assays, T cells were isolated from PBMCs by positive selection using T cell enrichment kit (Miltenyi Biotec) following the manufacturer's instructions. Cells were typically ˜90% pure. […] Cells were washed three times with RPMI+10% FBS, were counted, and were used as responder cells.

[8] = tested on: PBMCs obtained from non-small cell lung cancer (NSCLC) patients; assay: NSCLC patient PBMCs cultured with Compound A or entinostat, FACS; settings: for expression of CD86 on CD14+ monocytes / expression of MHC class II molecules on CD14+ monocytes: 24-hour culture, FIG. 4A; for expression of CD69 activation marker on conventional CD8+ and CD4+ T cells: patient PBMC cultures, FIG. 3A, 3B
From the text: Specifically, the phenotype of CD14+CD11b+ monocytes in the peripheral blood of healthy subjects and NSCLC patients, or that of CD14-CD68+CD11b+ macrophages within disaggregated NSCLC tumors were investigated. […] Peripheral blood mononuclear cells (PBMCs) were isolated by Ficoll gradient from fresh or frozen blood samples obtained from healthy donors and consented patients under IRB-approved institutional protocols. […] Cells were then washed and were subjected to phenotypic analysis by FACS. In some experiments, these cultures were performed with purified CD14+ monocytes or CD3+ T cells after purifications from whole PBMCs.

[9] = tested on: lung adenocarcinomas of KP and TL mice; assay: 7-day treatment of KP and TL lung adenocarcinoma mice, tumor immune profiling; format: in vivo, mouse
From the text: Tumor-associated immune cells are important in shaping the course of tumor progression and anti-tumor immunity. The effects of an HDAC6 selective inhibitor on phenotypic and functional changes, especially in the context of tumor antigens, were investigated. Specifically, the effects of an HDAC6 selective inhibitor on immune cells infiltrating lung adenocarcinomas that spontaneously develop in fully immunocompetent genetically engineered mice harboring activating Kras^G12D mutation and concurrent p53 loss (designated as KP), or those with T790M/L858R EGFR mutations (designated TL) were studied. […] Single cell suspensions of lung tumor nodules were generated and subjected to FACS analysis to assess the proportions, phenotype and function of CD45+ immune cell subsets in the tumors isolated from both KP and TL mice.
Mice with existing adenocarcinomas were treated once daily with Compound A for seven days prior to evaluation of dissociated tumors by comprehensive multi-parameter flow cytometry. […] Such increases in the CD8:Treg ratios are often associated with enhanced anti-tumor response. […]
as §1, §2
Tumor-associated macrophages (TAMs; CD45+CD11c+CD11b^lo) and CD45+CD3+CD25^lo/− T cells were sorted into 96-well plates containing 50 μl of 1×PBS with Recombinant Ribonuclease Inhibitor (Life Technologies) isolated from tumor tissues by FACS sorting. Briefly, tumor cell suspensions were incubated with live/dead fixable dye after FcγR blocking and subsequently stained with antibodies against CD45, CD3, CD8, CD11b, and CD11c. Smart-Seq2 libraries were prepared by the Broad Technology Labs and sequenced by the Broad Genomics Platform.

[10] = JQ1 1 μM, two days of culture, FIG. 7B
[11] = PBMCs from healthy donors, FIG. 4C
[12] = KP and TL mice, 7 days, FIG. 5K-5M
[13] = KP and TL mice, once daily for seven days, FIG. 5A-5B

O=C(NO)c1cnc(NC2(c3cccc(F)c3)CCCCC2)nc1 [Compound C, 2-((1-(3-fluorophenyl)cyclohexyl)amino)-N-hydroxypyrimidine-5-carboxamide]
percentage of CD4+FOXP3+ Tregs within PBMCs ([1]; healthy donor PBMCs, 24 hours): did not significantly impact

Cc1sc2c(c1C)C(c1ccc(Cl)cc1)=NC(CC(=O)OC(C)(C)C)c1nnc(C)n1-2 (stereo not drawn) [JQ1]
Treg fractions/proportions in tumors ([2]; 4-6 weeks, FIG. 9B): more substantial reduction | suppressive function of Tregs vs unexposed counterparts ([3]; CFSE dilution, FIG. 7C): less suppressive | expression levels of Foxp3 on Tregs [3, 10]: diminished expression levels | expression levels of PD-1 on Tregs [3, 10]: diminished expression levels | tumor growth [4]: moderate

O=C(CCCCCCNC(=O)c1cnc(N(c2ccccc2)c2ccccc2)nc1)NO [Compound A, 2-(diphenylamino)-N-(7-(hydroxyamino)-7-oxoheptyl)pyrimidine-5-carboxamide]
MHC class II molecules on TAMs ([2]; FIG. 9G): markedly promoted the up-regulation | CD86 on TAMs ([2]; FIG. 9H): markedly promoted the up-regulation | expression of CD86 on monocytes [1, 11]: increased expression | expression of MHC class II on monocytes [1, 11]: increased expression | expression of CD69 activation marker on conventional CD8+ and CD4+ T cells ([1]; healthy donor PBMC cultures, 24 hours, FIG. 3C, 3D): substantially up-regulated | percentage of CD4+FOXP3+ Tregs within PBMCs ([1]; healthy donor PBMCs, 24 hours): reduced most significantly | phospho-STAT3 expression on T cells ([1]; healthy donor PBMCs, FIG. 3E): increase | expression of CD86 on CD14-CD68+CD11b+ macrophages [5]: increased expression | expression of MHC class II on CD14-CD68+CD11b+ macrophages [5]: increased expression | safety profile [6]: favorable safety profile | tumor growth [4]: marginal delay | induction of allogeneic T cell proliferative responses by exposed CD14+ monocytes [7]: superior | expression of CD86 on CD14+ monocytes [8]: up-regulated | expression of MHC class II molecules on CD14+ monocytes [8]: up-regulated | expression of CD69 activation marker on conventional CD8+ and CD4+ T cells [8]: substantially up-regulated | expression levels of CD86 on CD11c+CD11b lo tumor-associated macrophages [9, 12]: significantly elevated expression levels | expression levels of MHC class II on CD11c+CD11b lo tumor-associated macrophages [9, 12]: significantly elevated expression levels | CD4+Foxp3+ Treg cells among lymphoid cells [9, 13]: significant decreases | frequency of tumor-infiltrating CD8+ T cells [9, 13]: modest increases | genes associated with T cell activation and effector function (Cd69, Sell, Cd44, Prf1) in tumor-infiltrating T cells ([9]; KP mice, single cell RNA-Seq, vs vehicle, FIG. 5N): up-regulated | inhibitory receptor molecule expression on tumor-infiltrating T cells ([9]; PD-1, CTLA-4, TIM3, seven days, FIG. 5D-5G): no substantial phenotypic changes | secretion of IFN-γ and TNF-α by tumor-infiltrating CD8+ T cells ([9]; ex-vivo stimulation, vs vehicle, FIG. 5H): enhanced capacity to secrete | CD69 activation marker on tumor-infiltrating CD8+ T cells ([9]; seven days treatment, vs vehicle, FIG. 5H): increased expression levels | expression of genes associated with MHC class II (Cd74, H2-Aa) in TAMs ([9]; single cell RNA-Sequencing, vs control mice, FIG. 5N): higher expression

O=C(CCCCCCNC(=O)c1cnc(N(c2ccccc2)c2ccccc2Cl)nc1)NO [Compound B, 2-((2-chlorophenyl)(phenyl)amino)-N-(7-(hydroxyamino)-7-oxoheptyl)pyrimidine-5-carboxamide]
percentage of CD4+FOXP3+ Tregs within PBMCs ([1]; healthy donor PBMCs, 24 hours): reduced most significantly | activation of CD8 T cells (CD69 activation marker) ([9]; KP mice, 7 days, FIG. 5I): increased activation | expression of MHCII on tumor associated macrophages ([9]; KP mice, 7 days, FIG. 5I): increased expression

CN1CCc2c(c3ccccc3n2Cc2ccc(C(=O)NO)cc2)C1 [Tubastatin, Tubastatin A, reference compound]
percentage of CD4+FOXP3+ Tregs within PBMCs ([1]; healthy donor PBMCs, 24 hours): did not significantly impact

O=C(NO)c1cnc(NC2(c3ccccc3)CC2)nc1 [Compound D, N-hydroxy-2-((1-phenylcyclopropyl)amino)pyrimidine-5-carboxamide]
percentage of CD4+FOXP3+ Tregs within PBMCs ([1]; healthy donor PBMCs, 24 hours): effect was still present

Nc1ccccc1NC(=O)c1ccc(CNC(=O)OCc2cccnc2)cc1 [Entinostat, entinostat, reference compound]
percentage of CD4+FOXP3+ Tregs within PBMCs ([1]; healthy donor PBMCs, 24 hours): effect was still present | expression of CD86 on CD14+ monocytes [8]: neither addition of DMSO nor entinostat up-regulated | expression of MHC class II molecules on CD14+ monocytes [8]: neither addition of DMSO nor entinostat up-regulated | expression of CD69 activation marker on conventional CD8+ and CD4+ T cells [8]: not
